# Laboratory results as given in BigSolDB 2.1.
smiles,measurement,setting,value
CN(C)Cc1c[nH]c2ccccc12,solubility (mole fraction),"in 1,4-dioxane, 288.15 K",0.0465
same,solubility (mole fraction),"in 1,4-dioxane, 293.15 K",0.0511
same,solubility (mole fraction),"in 1,4-dioxane, 298.15 K",0.0562
same,solubility (mole fraction),"in 1,4-dioxane, 303.15 K",0.0623
same,solubility (mole fraction),"in 1,4-dioxane, 308.15 K",0.0684
same,solubility (mole fraction),"in 1,4-dioxane, 313.15 K",0.0746
same,solubility (mole fraction),"in acetone, 273.15 K",0.0231
same,solubility (mole fraction),"in acetone, 278.15 K",0.026
same,solubility (mole fraction),"in acetone, 283.15 K",0.0289
same,solubility (mole fraction),"in acetone, 288.15 K",0.0327
same,solubility (mole fraction),"in acetone, 293.15 K",0.0364
same,solubility (mole fraction),"in acetone, 298.15 K",0.0402
same,solubility (mole fraction),"in acetone, 303.15 K",0.0463
same,solubility (mole fraction),"in acetone, 308.15 K",0.0523
same,solubility (mole fraction),"in acetone, 313.15 K",0.0584
same,solubility (mole fraction),"in acetonitrile, 273.15 K",0.00447
same,solubility (mole fraction),"in acetonitrile, 278.15 K",0.00517
same,solubility (mole fraction),"in acetonitrile, 283.15 K",0.00621
same,solubility (mole fraction),"in acetonitrile, 288.15 K",0.00736
same,solubility (mole fraction),"in acetonitrile, 293.15 K",0.00858
same,solubility (mole fraction),"in acetonitrile, 298.15 K",0.00998
same,solubility (mole fraction),"in acetonitrile, 303.15 K",0.0116
same,solubility (mole fraction),"in acetonitrile, 308.15 K",0.0133
same,solubility (mole fraction),"in acetonitrile, 313.15 K",0.0151
same,solubility (mole fraction),"in ethanol, 273.15 K",0.0207
same,solubility (mole fraction),"in ethanol, 278.15 K",0.023
same,solubility (mole fraction),"in ethanol, 283.15 K",0.0254
same,solubility (mole fraction),"in ethanol, 288.15 K",0.0283
same,solubility (mole fraction),"in ethanol, 293.15 K",0.0317
same,solubility (mole fraction),"in ethanol, 298.15 K",0.0355
same,solubility (mole fraction),"in ethanol, 303.15 K",0.0399
same,solubility (mole fraction),"in ethanol, 308.15 K",0.0449
same,solubility (mole fraction),"in ethanol, 313.15 K",0.0508
same,solubility (mole fraction),"in ethyl acetate, 273.15 K",0.0165
same,solubility (mole fraction),"in ethyl acetate, 278.15 K",0.0193
same,solubility (mole fraction),"in ethyl acetate, 283.15 K",0.0219
same,solubility (mole fraction),"in ethyl acetate, 288.15 K",0.0253
same,solubility (mole fraction),"in ethyl acetate, 293.15 K",0.029
same,solubility (mole fraction),"in ethyl acetate, 298.15 K",0.0327
same,solubility (mole fraction),"in ethyl acetate, 303.15 K",0.0377
same,solubility (mole fraction),"in ethyl acetate, 308.15 K",0.0428
same,solubility (mole fraction),"in ethyl acetate, 313.15 K",0.0479
same,solubility (mole fraction),"in isopropanol, 273.15 K",0.013
same,solubility (mole fraction),"in isopropanol, 278.15 K",0.0153
same,solubility (mole fraction),"in isopropanol, 283.15 K",0.0178
same,solubility (mole fraction),"in isopropanol, 288.15 K",0.0207
same,solubility (mole fraction),"in isopropanol, 293.15 K",0.0235
same,solubility (mole fraction),"in isopropanol, 298.15 K",0.0268
same,solubility (mole fraction),"in isopropanol, 303.15 K",0.0305
same,solubility (mole fraction),"in isopropanol, 308.15 K",0.0341
same,solubility (mole fraction),"in isopropanol, 313.15 K",0.0377
same,solubility (mole fraction),"in methanol, 273.15 K",0.0274
same,solubility (mole fraction),"in methanol, 278.15 K",0.0293
same,solubility (mole fraction),"in methanol, 283.15 K",0.0315
same,solubility (mole fraction),"in methanol, 288.15 K",0.0341
same,solubility (mole fraction),"in methanol, 293.15 K",0.0371
same,solubility (mole fraction),"in methanol, 298.15 K",0.0417
same,solubility (mole fraction),"in methanol, 303.15 K",0.0474
same,solubility (mole fraction),"in methanol, 308.15 K",0.0537
same,solubility (mole fraction),"in methanol, 313.15 K",0.0615
same,solubility (mole fraction),"in n-butanol, 273.15 K",0.0305
same,solubility (mole fraction),"in n-butanol, 278.15 K",0.0337
same,solubility (mole fraction),"in n-butanol, 283.15 K",0.0369
same,solubility (mole fraction),"in n-butanol, 288.15 K",0.0416
same,solubility (mole fraction),"in n-butanol, 293.15 K",0.0464
same,solubility (mole fraction),"in n-butanol, 298.15 K",0.0512
same,solubility (mole fraction),"in n-butanol, 303.15 K",0.0565
same,solubility (mole fraction),"in n-butanol, 308.15 K",0.0617
same,solubility (mole fraction),"in n-butanol, 313.15 K",0.067
same,solubility (mole fraction),"in n-octanol, 273.15 K",0.0111
same,solubility (mole fraction),"in n-octanol, 278.15 K",0.0132
same,solubility (mole fraction),"in n-octanol, 283.15 K",0.0158
same,solubility (mole fraction),"in n-octanol, 288.15 K",0.0187
same,solubility (mole fraction),"in n-octanol, 293.15 K",0.0218
same,solubility (mole fraction),"in n-octanol, 298.15 K",0.025
same,solubility (mole fraction),"in n-octanol, 303.15 K",0.0284
same,solubility (mole fraction),"in n-octanol, 308.15 K",0.0319
same,solubility (mole fraction),"in n-octanol, 313.15 K",0.036
same,solubility (mole fraction),"in n-propanol, 273.15 K",0.0284
same,solubility (mole fraction),"in n-propanol, 278.15 K",0.0315
same,solubility (mole fraction),"in n-propanol, 283.15 K",0.0346
same,solubility (mole fraction),"in n-propanol, 288.15 K",0.0381
same,solubility (mole fraction),"in n-propanol, 293.15 K",0.0415
same,solubility (mole fraction),"in n-propanol, 298.15 K",0.046
same,solubility (mole fraction),"in n-propanol, 303.15 K",0.0515
same,solubility (mole fraction),"in n-propanol, 308.15 K",0.0581
same,solubility (mole fraction),"in n-propanol, 313.15 K",0.0629
same,solubility (mole fraction),"in toluene, 273.15 K",0.00345
same,solubility (mole fraction),"in toluene, 278.15 K",0.00408
same,solubility (mole fraction),"in toluene, 283.15 K",0.00456
same,solubility (mole fraction),"in toluene, 288.15 K",0.00537
same,solubility (mole fraction),"in toluene, 293.15 K",0.00647
same,solubility (mole fraction),"in toluene, 298.15 K",0.00765
same,solubility (mole fraction),"in toluene, 303.15 K",0.00905
same,solubility (mole fraction),"in toluene, 308.15 K",0.0107
same,solubility (mole fraction),"in toluene, 313.15 K",0.0126
